Results: patent US8367801B2, “Proteinaceous compounds” (Endocrine Pharmaceuticals Limited, priority 2008, dated 2013)
Ends that are not written are not given here.

Columns and labels:
Caenorhabditis elegans [1] = format: in vivo; conditions: for effect on lifespan / increase in fecundity (number of offspring): 1 μM in aqueous medium each day; for increase in fecundity (number of offspring): over lifespan
Text: (For methodology see Davies, K. G & Hart, J. E, Nematology, 10, 103-112, 2008).
The first six amino acids of the micrin peptide fragment of SEQ ID NO: 9 are MKPLTG (SEQ ID NO: 26). These have been synthesized as a 6 mer. […] Thus the fecundity-enhancing effect is retained even if 8 of the 14 amino acids are removed, potentially identifying an active motif. To optimise this 6 mer further, amino acid substitutions have been made, while retaining the proline at position 3.

human dental pulp cells = experiment: Dental pulp cell proliferation (Cyquant); format: cell-based; conditions: for anti-proliferative activity: 5 μM in the cell medium, seeding 5.0×10^3 cells/ml
[2] = system: MCF 7 human breast cancer cells; experiment: IGF1-stimulated cell growth, Coulter counter; format: cell-based; conditions: IGF1 50 ng/ml, 72 hours
Protocol: Experiments were conducted to assess the effects of a range of doses of the micrin peptide fragment with 20 amino acids (SEQ ID NO: 19) on the IGF1-stimulated growth of MCF 7 human breast cancer cells. Cells were plated at 2×10^4 per well in 2 cm^2 wells in Dulbecco's Modified Eagle's Medium containing 10% foetal calf serum, antibiotics and a stabilised substitute for glutamine (Glutamax, InVitrogen, UK). After an overnight culture period, the cells were washed with fresh medium and this was replaced with medium containing IGF1 (50 ng/ml) in the presence and absence of a range of concentrations (between 0.04 and 4000 nmol) of the peptide fragment in triplicate wells, and compared to triplicate wells containing medium only (with no supplementary IGF1) as controls. The cells were incubated for 72 hours in a humidified atmosphere at 37° C. under 5% carbon dioxide/95% air. The medium was discarded, and the cell layer washed with buffered saline before being incubated with trypsin/EDTA to dislodge the cells. The cell suspension was diluted with medium to stop the tryptic action and then transferred to tubes and subjected to centrifugation. The pellet was resuspended in Isoton and samples counted with a Coulter counter.

[3] = system: adult rat bone marrow stem cells; experiment: Adult rat bone marrow stem cells in culture, cell numbers by time-lapse video over 24 h; format: cell-based
Protocol: Polyclonal antibodies were raised in the same manner using goats instead of rabbits, with Peptide 2 conjugated to KLH. The primary immunisation was followed by 8 boosters at monthly intervals, using standard techniques for the raising of polyclonal antibodies. Titre was established via immunohistochemistry, using rat and ovine median eminence tissue and the ability to block antibody with Peptide 1 was determined on histological sections. Specificity was tested using a range of hypothalamic peptides. […] 9, which consists of KVKEFNNI (SEQ ID NO. 21). Purification of the antibody using the peptide SEQ ID NO: 9 immobilised on a column enriches for antibody to the C-terminal epitope. The goat antibody has been used in connection with an assay based on adult rat bone marrow stem cells in culture, with α-MEMS as cell medium and manual assessments of cell numbers and morphology using time-lapse video photography over 24 h.
(§1) Micrin activity has been determined by means of a suitable in vitro assay, for example the breast cancer cell viability assay described above in Section 4 with reference to FIG. 4. A useful assay in support of molecular optimisation involves adult rat bone marrow stem cells in culture, with α-MEMS as cell medium and manual assessments of cell numbers and morphology using time-lapse video photography over 24 h. In one study, untreated control cells increased in number by 50%. An increase of just under 20% was also seen with the 14 mer peptide SEQ ID NO: 9, administered at 10 μg/ml of medium.

[4] = system: human bone marrow stem cells; experiment: Human bone marrow stem cell proliferation in vitro; format: cell-based; conditions: 1 μM in the medium, 24 h
Protocol: as §1
To investigate the stop growing aspect of the hypothesized micrin puberty signal, the proline-containing 6 mers have been administered to human bone marrow stem cells in an in vitro assay (see 6a), at a concentration in the medium of 1 μM.

Caenorhabditis elegans [5] = conditions: Davies & Hart, Nematology 2008; cited from earlier work
[6] = system: human umbilical vascular endothelial cells (HUVECs); experiment: AngioKit angiogenesis assay, venule length; format: cell-based; conditions: FIG. 6; suramin 20 μM; micrin sample T2
Protocol: Micrin and micrin free control samples were produced using the method described in Example 7.a with 120 ml sheep follicular fluid as the source material. These were diluted in AngioKit medium and stored at 4° C. for the duration of the assay. Samples were tested as follows: • 1) untreated control—medium alone • 2) positive control—medium containing 2 ng/ml VEGF • 3) negative control—medium containing 20 μM suramin (a potent inhibitor of angiogenesis) • 4) micrin-free control • 5) micrin test material
Comparison of venule length was conducted using the ‘Angiosys’ image analysis system developed specifically for the analysis of images produced using the AngioKit. Four images were taken from predetermined positions in the well containing each specimen. The results obtained with micrin are marked T2, those with micrin-free control T1.

[7] = system: PC3 prostate cancer cells; experiment: Tumour cell viability, Alamar Blue; format: cell-based; conditions: 48 hours; mean n = 3, SEMs < 5%; camptothecin at 3 μmol
Protocol: (§2) The effects of micrin on viability of tumour cells were determined using MCF7 breast cancer cells and PC3 prostate cancer cells. Cells were plated out to provide 2×10^4 cells in 2 cm^2 wells in Dulbecco's modified Eagles medium (DMEM) containing 10% foetal calf serum (FCS), antibiotics and a stabilised substitute for glutamine (Glutamax, Invitrogen UK). The cells were allowed to attach overnight. The medium was removed and the cells were washed several times with fresh medium, and then treated with test or control samples diluted in medium.
(§3) Test and control samples were produced according to an ion exchange method using 120 ml sheep ovarian follicular fluid as the starting material. Follicular fluid obtained by aspiration of abattoir-derived sheep ovaries was centrifuged at +4° C. and 2000 g for 10 minutes, then spun through Amicon Centriprep-30 cartridges at 1800 g to give a nominal 0-30 kD fraction. This fraction was spun through Amicon Centriprep-3 cartridges to give a nominal 3-30 kD sub-fraction. […]
(§4) Camptothecin, an inducer of apoptosis, was used as a positive control at 3 μmol. After 48 hours the medium was changed for fresh medium and the number of remaining viable cells was quantitated using Alamar Blue. The number of viable cells in the micrin and camptothecin samples were expressed as a percentage of the number of viable cells in the micrin-free control samples. […]

MCF7 breast cancer cells = experiment: Tumour cell viability, Alamar Blue; format: cell-based, human; conditions: 48 hours; mean n = 3, SEMs < 5%; camptothecin at 3 μmol
Protocol: as §2, §3, §4

ovine pituitary cells [8] = experiment: LH secretion by pituitary cells in vitro; format: cell-based; conditions: 24 h, 0.1-10 μg/L, dose dependent, vs scrambled peptide, data not shown
Protocol: Both effects are dependent on dose across the range used, 0.1-10 μg/L, and are statistically significant. Comparison was with a control peptide having the same amino acids in a randomly scrambled sequence (data not shown)

[9] = system: compensatory renal growth; conditions: procedures as in 7c; Haylor et al 2009; cited from earlier work
ovine pituitary cells [10] = experiment: Prolactin production by pituitary cells in vitro, RIA; format: cell-based
Protocol: Adult ewe pituitaries were collected into phosphate buffered saline (PBS) on ice. The external dura and neurohypophyseal tissue were removed and the remaining tissue was sliced thinly using tweezers and scalpel, and minced using crossed scalpel blades (<1 mm pieces). The mince was washed in 0.1% bovine serum albumen (BSA)/PBS. The tissue was allowed to settle and the liquid aspirated. The washing, settling and aspiration were repeated.
A standard cell dispersion was conducted by adding the tissue to a filtered solution of collagenase in BSA/PBS (0.02-0.03 g in 10 ml) plus Dnase, hyaluronidase, pancreatin and trypsin inhibitor and incubating in a shaking waterbath at 37° C. for 25 minutes. The resultant suspension was titurated with a pipette and returned to the shaking waterbath for 5 minutes. The suspension was titurated again and filtered through a mesh, washing with BSA/PBS. The suspension was added to a 50 ml centrifuge tube and spun at 1500 rpm for 5 minutes. The supernatant was removed and the cell pellet resuspended in 50 ml BSA/PBS.
A sample of the cell suspension (50 μl) was mixed 1:1 with trypan blue in a microcentrifuge tube and viable cells were counted on a haemocytometer, to give viable cell concentration.
The cell suspension was recentrifuged and resuspended in 3-5 ml of M199. […]

Q: For “fluorescently tagged version of the micrin peptide fragment: fluorescently tagged version of the micrin peptide fragment SEQ ID NO: 9 (MKPLTGKVKEFNNI; also: fluorescent tag, position not given here)”, which tissue accumulation (Caenorhabditis elegans [1]; in vivo) is on record?
A: The tissue accumulation was “accumulate preferentially in genital tissue”.

Q: With “1KPLTGKVKEFNNI [SEQ ID NO:1, 14 mer wherein 1 is S, D or M]” as the compound, how does the anti-proliferative activity (human dental pulp cells) read?
A: Its anti-proliferative activity is “more so”.

Q: With MKPLTGKVKEFNNIKGFGVI [SEQ ID NO: 19] as the compound, how does the “cell count compared to IGF1 alone” value ([2]; 0.04 nmol peptide) read?
A: Its value is “noticably decreases the cell count”.

Q: What about the “cell count compared to controls” value ([2]; 40 nmol peptide) of the same compound?
A: Its value is “reduces the cell count to below that in the controls”.

Q: And the “effect on IGF1-stimulated cell growth” value ([2]; 0.04-4000 nmol, FIG. 7)?
A: Its value is “suppresses the effect of IGF1 in a dose-dependent manner”.

Q: What about the “reduction in cell numbers” value ([3]; 24 h, due to apoptosis) of the same compound?
A: The value was “about 80%”.

Q: For IEPVFT, which “ascending order of anti-proliferative activity” value (shortened to “ascending order”) [4] is on record?
A: The value was “IEPVFT (SEQ ID NO: 30)<MKPLTG (SEQ ID NO. 26)<LEPVMT (SEQ ID NO: 31)<LQPAHV (SEQ ID NO: 27)”.

Q: What about the effect on lifespan (Caenorhabditis elegans [1]) of the same compound?
A: The effect on lifespan was “without having a significant effect on lifespan”.

Q: And the “increase in fecundity (number of offspring)” value (shortened to “increase in fecundity”) (Caenorhabditis elegans [1])?
A: Its value is 79%.

Q: Which effect on fecundity (Caenorhabditis elegans [5]) does the source give for “KLKMNGKN (SEQ ID NO: 29) to the N-terminus of IEPVFT: IEPVFT with KLKMNGKN added to its N-terminus (KLKMNGKNIEPVFT)” here?
A: Its effect on fecundity is “anti-fecundity agent”.

Q: Which HUVEC venule length [6] does the source give for Cc1ccc(C(=O)Nc2ccc(S(=O)(=O)O)c3cc(S(=O)(=O)O)cc(S(=O)(=O)O)c23)cc1NC(=O)c1cccc(NC(=O)Nc2cccc(C(=O)Nc3cc(C(=O)Nc4ccc(S(=O)(=O)O)c5cc(S(=O)(=O)O)cc(S(=O)(=O)O)c45)ccc3C)c2)c1 [Suramin, suramin] here?
A: The HUVEC venule length was “statistically significant decrease in HUVEC venule length”.

Q: With CC[C@@]1(O)C(=O)OCc2c1cc1n(c2=O)Cc2cc3ccccc3nc2-1 [Camptothecin] as the compound, how does the “Viability (% micrin-free control) PC3 (prostate cancer)” value [7] read?
A: Its value is 43.9 % micrin-free control.

Q: What about the “Viability (% micrin-free control) MCF-7 (breast cancer)” value (MCF7 breast cancer cells) of the same compound?
A: Its value is 56.2 % micrin-free control.

Q: What does the source list for MKPLTG?
A: anti-proliferative activity (human dental pulp cells): minimally anti-proliferative; ascending order of anti-proliferative activity [4]: IEPVFT (SEQ ID NO: 30)<MKPLTG (SEQ ID NO. 26)<LEPVMT (SEQ ID NO: 31)<LQPAHV (SEQ ID NO: 27); effect on lifespan (Caenorhabditis elegans [1]): without altering lifespan; increase in fecundity (number of offspring) (Caenorhabditis elegans [1]): 50%

Q: Which anti-proliferative activity (human dental pulp cells) does the source give for KVKEFNNI here?
A: Its anti-proliferative activity is “most anti-proliferative of all”.

Q: And the “reduction of cell numbers” value (human dental pulp cells; 5 μM, over 7 days)?
A: Its value is “about 17%”.

Q: Which LH production (ovine pituitary cells [8]; cells provided with GnRH, GHRH and TRH) does the source give for MKPLTGKVKEFNNI [SEQ ID NO: 9] here?
A: The LH production was “reduction in LH production”.

Q: What about the LH secretion (ovine pituitary cells [8]; hypothalamic regulators omitted) of the same compound?
A: The LH secretion was “increase the secretion of LH”.

Q: And the “effect on compensatory renal growth” value [9]?
A: The value was “inhibits compensatory renal growth”.

Q: And the “increase in cell number” value ([3]; 10 μg/ml of medium, 24 h, untreated control cells increased by 50%)?
A: Its value is “under 20%”.

Q: What about the “effect of co-administration on the antibody's reduction of the negative influence” value ([3]; with goat antibody and rat hypothalamus extract) of the same compound?
A: The value was “reversed by co-administration”.

Q: What about the “prolactin level in medium” value (ovine pituitary cells [10]; Experiment 1: 1 ng/well, 24 hours, n=4, control 92.2±13.9) of the same compound?
A: Its value is 67.1 ± 12.6 ng/mL.

Q: What about the “prolactin level in medium” value (ovine pituitary cells [10]; Experiment 2: 1 μg/ml, 2 hours, control 8.30±1.16, p<0.05) of the same compound?
A: The value was 5.18 ± 1.52 ng/mL.

Q: What about the effect on lifespan (Caenorhabditis elegans [1]) of the same compound?
A: Its effect on lifespan is “increased by about a fifth”.

Q: What about the “increase in fecundity” value (Caenorhabditis elegans [1]) of the same compound?
A: Its value is > 40%.

Q: With LEPVMT as the compound, how does the “ascending order” value [4] read?
A: Its value is “IEPVFT (SEQ ID NO: 30)<MKPLTG (SEQ ID NO. 26)<LEPVMT (SEQ ID NO: 31)<LQPAHV (SEQ ID NO: 27)”.

Q: With LQPAHV as the compound, how does the “ascending order” value [4] read?
A: The value was “IEPVFT (SEQ ID NO: 30)<MKPLTG (SEQ ID NO. 26)<LEPVMT (SEQ ID NO: 31)<LQPAHV (SEQ ID NO: 27)”.

Q: And the “reduction of cell numbers” value [4]?
A: Its value is “about 32%”.

Q: And the effect on lifespan (Caenorhabditis elegans [1])?
A: Its effect on lifespan is “significantly to prolong lifespan”.

Q: What about the “increase in fecundity” value (Caenorhabditis elegans [1]) of the same compound?
A: The value was 71%.
